{"source": "patent US11673866B2", "about": "“Estrogen receptor beta ligands for the prevention and treatment of multiple sclerosis (MS) and other demyelinating, inflammatory and neurodegenerative diseases” (The Board of Trustees of the University of Illinois, priority 2018, dated 2023)", "test_system": "primary OPCs/OLs", "assay": "Primary OPC/OL differentiation and survival (O4, MOG, DAPI staining)", "format": "cell-based, mouse", "settings": "vs vehicle-treated cells, FIG. 12B", "from_the_text": "FIG. 12A is representative images of primary OPCs/OLs from wells containing differentiating media in the presence of different analogues. OLs were immunostained with an antigen on the surface of oligodendrocyte progenitors, O4, a marker of mature oligodendrocytes, myelin oligodendrocyte glycoprotein, MOG and co-stained with nuclear stain DAPI.\nFIG. 12B and FIG. 12C show quantification of the effects of treatment on the number of MOG+ OLs and the number of total cells (DAPI), respectively. […] There were 3 wells/treatment group. n=3 independent experiments were performed. One-Way ANOVA with Dunnett's multiple comparisons test.\nThe effect on cell differentiation and survival of estrogen receptor § (ERP) ligand IndCl and analogs were investigated. Some estrogen receptor § (ERP) ligands increase primary mouse oligodendrocyte differentiation (FIGS. 12A-12C).", "data": [{"smiles": "Oc1ccc(-n2nc3ccc(O)cc3c2Cl)cc1", "note": "[IndCl, chloroindazole]", "values": [{"measurement": "number of MOG+ OLs", "result": "significant increase"}]}]}
